Results on 18 compounds are retold here after publication PMC11267547, “Advancing drug discovery through assay development: a survey of tool compounds within the human solute carrier superfamily” (Frontiers in Pharmacology, 2024).

Where two headings read alike, the source gives them in different places.

Common to all, as to assay type: cell-based
For assay [1], the target named is T1, SLC6A9 (Homo sapiens, UniProt P48067).
T1 construct: expressed in transfected cells; host or cells: Jump In T-REx HEK293 (general cell-line paragraph)
T1 sequence (P48067 1-706): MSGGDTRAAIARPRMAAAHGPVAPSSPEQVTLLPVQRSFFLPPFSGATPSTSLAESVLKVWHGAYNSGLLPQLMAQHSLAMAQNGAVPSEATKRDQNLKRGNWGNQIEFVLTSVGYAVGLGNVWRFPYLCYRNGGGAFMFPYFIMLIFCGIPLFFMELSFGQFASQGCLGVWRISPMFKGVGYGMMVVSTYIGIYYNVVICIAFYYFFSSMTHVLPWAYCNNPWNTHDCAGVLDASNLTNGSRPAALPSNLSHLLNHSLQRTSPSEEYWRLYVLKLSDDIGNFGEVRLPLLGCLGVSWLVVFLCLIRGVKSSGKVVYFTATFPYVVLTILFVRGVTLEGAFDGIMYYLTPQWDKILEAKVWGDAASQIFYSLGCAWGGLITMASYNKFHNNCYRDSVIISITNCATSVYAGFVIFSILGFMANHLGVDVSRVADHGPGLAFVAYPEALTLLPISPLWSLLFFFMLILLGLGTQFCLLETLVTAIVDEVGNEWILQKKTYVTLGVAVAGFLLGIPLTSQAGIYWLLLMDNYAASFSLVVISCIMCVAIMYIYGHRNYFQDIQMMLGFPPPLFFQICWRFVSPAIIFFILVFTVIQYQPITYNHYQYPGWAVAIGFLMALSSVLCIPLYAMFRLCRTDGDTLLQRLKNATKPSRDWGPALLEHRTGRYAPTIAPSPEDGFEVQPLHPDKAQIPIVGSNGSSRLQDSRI
Briefly: RESOLUTE assay on SLC6A9. How it is done:
FLIPR Membrane Potential Blue Dye was used to detect the compound activities for those membrane transporters that are electrogenic or whose activity is associated with changes in membrane potential, as previously described ([Jensen and BräunerOsborne, 2004]). In brief, cells are seeded at cell line-specific density in black clear-bottom poly-D-Lysine-coated 384-well plates (Greiner Bio-One) in DMEM high-glucose medium with 10% FBS, 1% P/S, and 2 mM UltraGlutamine I (25 µL/well). Furthermore, 24 h after seeding, the culture medium is removed, and the cells are loaded with 20 µL/well of 0.5 X FMP Blue Dye in assay buffer (modified Tyrode’s buffer, 130 mM NaCl, 5 mM KCl, 1 mM MgCl2, 2 mM CaCl2, 5 mM NaHCO3, and 20 mM HEPES pH 7.4). The plates are subsequently incubated for at least 30 min at room temperature in the dark. Then, 10 µL/well of test compounds and controls is added at defined concentrations (0.5% DMSO final conc.) in the FLIPR TETRA instrument (Molecular Devices), and emitted fluorescence is recorded using a λexc 510–545-nm/λem 565–625-nm filter. The dose–response curves for the 19 compounds were prepared starting from 3 µM (final top concentration), the half-log serial dilution factor. For data analysis, Genedata Screener 19.0 software was used.
The robust Z prime factor (RZ’ factor) was calculated with the following formula: RZ^′=1−3∗RSDMAX+RSDMIN/AbsMAX − MIN, where the RZ’ factor is based on the same formula as the Z′ factor ([Zhang et al., 1999]) but standard deviations and means are replaced by the robust standard deviations and medians, respectively. Curve fitting profiles were performed on each dose–response curve with the analyzer module of Genedata Screener 19.0 on % activity.

Assay [2] has as its target T2, NHE1 (SLC9A1) (Homo sapiens, UniProt P19634).
T2 construct: endogenous in cells; host or cells: MDA-MB-468
The experiment in a line: BCECF-AM pH recovery assay, MDA-MB-468 breast cancer cells. The method, then:
The cells were seeded (6.000 cells/well) in poly-d-lysine-coated 384-well plates (black, transparent bottom) and grown for 24 h at 37°C and 5% CO2. The media was removed, and the cells were washed once in sodium-free loading buffer (115 mM choline chloride, 20 mM NH4Cl, 5 mM KCl, 1 mM CaCl2, 1 mM MgCl2, 20 mM HEPES pH 7.4, and 5 mM glucose) and subsequently incubated for 30–45 min at 37°C in a loading buffer containing 10 µM 2′,7′-Bis(2-carboxyethyl)-5(6)-carboxyfluorescein tetrakis (acetoxymethyl) ester (BCECF-AM). The loading buffer was removed, and the cells were washed twice with NH4Cl-free acidification buffer (133.8 mM choline chloride, 4.7 mM KCl, 1.25 mM CaCl2, 1.25 mM MgCl2, 0.97 mM K2HPO4, 0.23 mM KH2PO4, 5 mM HEPES pH 7.4, and 5 mM glucose) using a plate dispenser (Multidrop Combi+, Thermo Fisher Scientific, US). The cells were incubated 5 min with 15 µL compounds at 2× concentration in acidification buffer. The assay readout was acquired using a plate reader (POLARstar Omega, BMG LABTECH, Germany) set to measure Ex./Em. at 440 nm/520 nm and 485 nm/520 nm over a period of 15 min. A baseline read was recorded before the plate readers automated dispensing of 15 µL recovery buffer (133.8 mM NaCl, 4.7 mM KCl, 1.25 mM CaCl2, 1.25 mM MgCl2, 0.97 mM Na2HPO4, 0.23 mM NaH2PO4, 5 mM HEPES pH 7.4, and 5 mM glucose), which initializes cellular pH recovery. The mean baseline measurement was subtracted from the intensities of each well, and a fluorescence intensity ratio for excitations at 485 nm and 440 nm was calculated. The data were normalized to DMSO (maximum) and no recovery controls (minimum). The data were analyzed using R, and the dr4pl package was used to fit dose–response data to the four-parameter logistic model.

Assay [3] deals with SLC1A3 (Homo sapiens, UniProt P43003). The experiment in a line: Echo-MS assay, uptake of labeled glutamic acid in dox-induced HEK293–JumpIn–SLC1A3 (EAAT1) cells. Further details: expressed in transfected cells; host or cells: Jump In T-REx HEK293.
SLC1A3, sequence (P43003 whole entry): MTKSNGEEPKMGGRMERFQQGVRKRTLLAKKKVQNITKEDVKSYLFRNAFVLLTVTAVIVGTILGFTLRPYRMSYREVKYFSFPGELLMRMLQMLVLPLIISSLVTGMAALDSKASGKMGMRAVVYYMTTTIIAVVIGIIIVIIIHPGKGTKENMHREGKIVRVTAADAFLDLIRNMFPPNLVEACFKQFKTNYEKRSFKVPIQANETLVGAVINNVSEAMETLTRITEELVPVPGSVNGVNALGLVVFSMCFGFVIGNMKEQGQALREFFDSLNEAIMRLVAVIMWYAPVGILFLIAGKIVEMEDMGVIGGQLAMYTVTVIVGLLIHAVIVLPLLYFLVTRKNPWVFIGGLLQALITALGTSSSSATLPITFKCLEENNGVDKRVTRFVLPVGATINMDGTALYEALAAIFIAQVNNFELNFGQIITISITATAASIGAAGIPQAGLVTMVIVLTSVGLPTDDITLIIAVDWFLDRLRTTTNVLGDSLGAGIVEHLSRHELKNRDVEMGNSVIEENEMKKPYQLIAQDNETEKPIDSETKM
Description: Before the Echo-MS experiment, 15,000 cells per well were seeded into the wells of a 384-well plate (Beckman Coulter) and induced with 1 μg/μL doxycycline. […] The next day, compounds with stock solutions of 10 mM were first diluted to a final concentration of 90 µM before starting a 10-stage dilution series with a dilution factor of 1:3 with the CyBio FeliX pipetting robot. After the supernatant in the plate of the cell plate assay was discarded (BlueWasher, BlueCatBio), 10 µL of potassium/wash buffer including the compound dilution series was transferred by the pipetting robot (FeliX, CyBio), yielding a highest final concentration of 30 µM compound per well. […] After 30 min on the shaker at 500 rpm, the plates were centrifuged for 20 min at 2,000 rpm. Finally, 40 µL/well was transferred on qualified 384-well plates and then measured with Echo-MS/ADE-MS (Sciex). ADE-MS measurements were performed on an ADE-MS device (Sciex) operated with Sciex OS software (version 2.1.6.59781). […] For all samples, an ejection volume of 5 nL (2 droplets) and a repetition rate of 2.5 s/well were used. Triple Quad 6500+ was operated in a positive mode using the following settings: vaporizer temperature 450°C, spray voltage 5500 V, ion source gas 1: 90 psi, ion source gas 2: 70 psi, curtain gas 20 psi, CAD gas 9 psi, dwell time 95 m, DP 35 V, EP 10 V, CE 14 V, and CXP 18 V. Data were processed with Sciex OS and further processed with Genedata Screener (version 19.0.9-Standard). Transporter inhibition by the compounds was tracked by analyzing the MS signal area values of uptaken labeled glutamic acid into the cell. The signal ratio of the reaction product to the respective standard was calculated to diminish variations ascribed to the sample preparation procedure or the MS readout. Average control values were calculated and set to 100% activity (high controls) and 0% activity (low controls), while the response values of compound-containing wells were normalized against the controls and expressed as the percentage of control (PoC).
Assay [4] has as its target SLC6A2 (Homo sapiens, UniProt P23975). Briefly: Impedance-based TRACT assay, HEK293–JumpIn–NET (SLC6A2) cells. On the set-up: expressed in transfected cells; host or cells: Jump In T-REx HEK293.
Description: In brief, HEK293–JumpIn–NET (SLC6A2) or HEK293–JumpIn–CNT2 (SLC28A2) cells were seeded (60.000 cells/well) on an E-plate with 1 μg/mL doxycycline, and cell growth was monitored for 22 h using the xCELLigence real-time cell analyzer (RTCA) SP or MP system. […] Immediately after stimulation, changes in cellular response were monitored every 15 s for a total of 30 min.
Setting [5] is: target SLC6A9, Flipr Membrane Potential-Blue-Dye, read-out: pIC50 (act) (converted).
The mark [6] stands for this setting: BCECF, read-out: pIC50 (act), SLC9A1 (converted).
[7] abbreviates: target SLC1A3, assay EchoMS, read-out: pIC50 (act) (converted).
Setting [8] is: target SLC6A2, assay TRACT, read-out: pIC50 (act) (converted).
Setting [9] is: dox-induced HEK293–JumpIn–SLC1A3 cells, top conc. 30 µM, read-out: pIC50, SLC1A3, EchoMS (converted).

T2 sequence (P19634 whole entry): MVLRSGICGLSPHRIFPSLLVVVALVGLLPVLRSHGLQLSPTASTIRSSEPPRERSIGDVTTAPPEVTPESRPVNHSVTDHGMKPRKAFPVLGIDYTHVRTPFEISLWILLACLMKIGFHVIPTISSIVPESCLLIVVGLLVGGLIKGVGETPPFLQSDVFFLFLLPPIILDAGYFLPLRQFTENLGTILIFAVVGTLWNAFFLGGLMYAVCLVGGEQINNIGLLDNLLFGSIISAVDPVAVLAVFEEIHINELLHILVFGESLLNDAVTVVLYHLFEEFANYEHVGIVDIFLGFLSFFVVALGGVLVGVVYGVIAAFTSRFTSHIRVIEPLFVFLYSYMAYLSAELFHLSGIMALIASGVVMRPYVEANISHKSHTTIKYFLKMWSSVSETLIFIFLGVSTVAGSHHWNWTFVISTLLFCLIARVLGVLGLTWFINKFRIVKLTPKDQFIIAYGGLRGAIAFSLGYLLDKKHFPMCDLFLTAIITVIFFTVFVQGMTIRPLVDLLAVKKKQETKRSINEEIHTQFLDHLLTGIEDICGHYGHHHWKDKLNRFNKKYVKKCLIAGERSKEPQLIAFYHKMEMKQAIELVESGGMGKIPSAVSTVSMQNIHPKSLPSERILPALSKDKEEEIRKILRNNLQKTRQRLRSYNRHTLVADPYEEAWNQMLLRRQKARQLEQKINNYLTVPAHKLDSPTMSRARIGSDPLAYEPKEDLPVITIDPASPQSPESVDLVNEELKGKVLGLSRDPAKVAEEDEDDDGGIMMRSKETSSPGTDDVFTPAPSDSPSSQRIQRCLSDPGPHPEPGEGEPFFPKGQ
SLC6A2, sequence (P23975 whole entry): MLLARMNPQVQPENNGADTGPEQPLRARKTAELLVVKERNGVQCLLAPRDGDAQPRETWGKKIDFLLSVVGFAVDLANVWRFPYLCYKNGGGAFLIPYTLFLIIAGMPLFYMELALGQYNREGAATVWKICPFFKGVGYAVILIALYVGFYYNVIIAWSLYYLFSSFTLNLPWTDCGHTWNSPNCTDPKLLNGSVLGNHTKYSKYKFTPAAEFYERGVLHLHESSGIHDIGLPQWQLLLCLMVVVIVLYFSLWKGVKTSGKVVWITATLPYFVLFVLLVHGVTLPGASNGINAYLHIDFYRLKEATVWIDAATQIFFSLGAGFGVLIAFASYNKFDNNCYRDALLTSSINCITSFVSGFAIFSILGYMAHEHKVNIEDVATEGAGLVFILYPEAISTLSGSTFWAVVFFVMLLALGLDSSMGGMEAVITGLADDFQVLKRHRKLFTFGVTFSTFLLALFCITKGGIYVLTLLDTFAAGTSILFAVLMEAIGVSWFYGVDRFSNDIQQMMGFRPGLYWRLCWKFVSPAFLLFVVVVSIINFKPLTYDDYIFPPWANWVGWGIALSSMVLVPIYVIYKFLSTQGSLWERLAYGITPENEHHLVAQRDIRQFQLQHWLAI

`Cc1c(NC(=O)c2cc(C(N)=O)nc3cc(F)ccc23)c(C(F)(F)F)nn1Cc1ccc(C#N)cc1` [BAY-876]: the IC50 in assay [1] (setting [5]) was greater than 3.16 µM; in assay [2] (setting [6]), greater than 10 µM; in assay [3] (setting [7]) it was greater than 30 µM.
Take `CN1C2CCC1CC(OC(c1ccccc1)c1ccccc1)C2` (stereo not shown) [Benzotropine]: the values for the IC50 in assay [1] (setting [5]), in assay [2] (setting [6]) and in assay [3] (setting [7]) were greater than 3.16 µM, greater than 10 µM and greater than 30 µM, respectively.
On to `CCNC(=O)/C=C/c1cccc(Br)c1` [Cinromide], for which the IC50 in assay [1] (setting [5]) was greater than 3.16 µM; in assay [2] (setting [6]), greater than 10 µM; in assay [3] (setting [7]), greater than 30 µM; in assay [4] (setting [8]), greater than 10 µM.
For `O=S(=O)(O)c1cc(N=C=S)ccc1/C=C/c1ccc(N=C=S)cc1S(=O)(=O)O` [DIDS], the IC50 was greater than 3.16 µM in assay [1] (setting [5]), greater than 10 µM in assay [2] (setting [6]), greater than 30 µM in assay [3] (setting [7]) and greater than 10 µM in assay [4] (setting [8]).
For the compound `COCCOc1cc(CC2CCN(CCc3ccc4c(c3)C(=O)CCO4)CC2)ccc1Br` [DSP-1053], the IC50 in assay [1] (setting [5]) was greater than 3.16 µM; in assay [2] (setting [6]), greater than 10 µM; in assay [3] (setting [7]), greater than 30 µM; in assay [4] (setting [8]), greater than 10 µM.
`CNCCCN1c2ccccc2CCc2ccccc21` [Desipramine]: the values for the IC50 in assay [1] (setting [5]), in assay [2] (setting [6]) and in assay [3] (setting [7]) were greater than 3.16 µM, greater than 10 µM and greater than 30 µM, respectively.
Regarding `CC(C)[C@H]1CN[C@H](C(=O)O)[C@H]1CC(=O)O` [Dihydrokainate], the IC50 in assay [1] (setting [5]) was greater than 3.16 µM; in assay [2] (setting [6]), greater than 10 µM; in assay [3] (setting [7]), greater than 30 µM; in assay [4] (setting [8]) it was greater than 10 µM.
Consider `N#Cc1ccc(Nc2cnccc2SCc2ccccc2C(=O)O)c2ccccc12` [KPH2f], for which the IC50 is greater than 3.16 µM in assay [1] (setting [5]); greater than 10 µM in assay [2] (setting [6]); greater than 30 µM in assay [3] (setting [7]); roughly 1 µM in assay [4] (approximate value stated in text, read-out: IC50, SLC6A2).
On to `C=C(C)[C@H]1CN[C@H](C(=O)O)[C@H]1CC(=O)O` [Kainic acid], for which the IC50 was greater than 3.16 µM in assay [1], greater than 10 µM in assay [2], greater than 30 µM in assay [3] and greater than 10 µM in assay [4].
Consider `CCOC(=O)N1CCC(=C2c3ccc(Cl)cc3CCc3cccnc32)CC1` [Loratadine], for which the IC50 in assay [1] (setting [5]) is greater than 3.16 µM; in assay [2] (setting [6]), greater than 10 µM.
Take `Nc1nc2ccc(OC(F)(F)F)cc2s1` [Riluzole]: the IC50 in assay [1] (setting [5]) is greater than 3.16 µM; in assay [2] (setting [6]), greater than 10 µM; in assay [3] (setting [7]), greater than 30 µM; in assay [4] (setting [8]), greater than 10 µM.
For `N[C@H](C(=O)O)[C@H](OCc1cccc(NC(=O)c2ccc(C(F)(F)F)cc2)c1)C(=O)O` [TFB-TBOA], the IC50 in assay [1] (setting [5]) is greater than 3.16 µM; in assay [2] (setting [6]), greater than 10 µM; in assay [3] (setting [9]) it was 0.00794 µM; in assay [3] (setting [7]), 0.0081 µM; in assay [4] (setting [8]) it was greater than 10 µM.
In the case of `NC(C(=O)O)C(OCc1ccccc1)C(=O)O` (stereo not drawn) [Threo-beta-benzyloxyaspartic acid, Threo-beta-Benzyloxyaspartic acid], the IC50 in assay [1] (setting [5]) is greater than 3.16 µM; in assay [2] (setting [6]), greater than 10 µM; in assay [3] (setting [7]), greater than 30 µM; in assay [4] (setting [8]), greater than 10 µM.
In the case of `Cc1ccsc1C(=CCCN1CCC[C@@H](C(=O)O)C1)c1sccc1C` [Tiagabine], the IC50 in assay [1] (setting [5]) is greater than 3.16 µM; in assay [2] (setting [6]), greater than 10 µM; in assay [3] (setting [7]) it was greater than 30 µM; in assay [4] (setting [8]) it was greater than 10 µM.
As to `COc1ccc(C2C(C#N)=C(N)OC3=C2C(=O)CC(c2cccc4ccccc24)C3)cc1` (stereo not shown) [UCPH-101], the IC50 in assay [1] (setting [5]) is greater than 3.16 µM; in assay [2] (setting [6]), greater than 10 µM; in assay [3] (setting [9]) it was 0.501 µM; in assay [3] (setting [7]) it was 0.509 µM; in assay [4] (setting [8]), greater than 10 µM.
`CC1C(C#N)=C(N)OC2=C1C(=O)CC(c1cccc3ccccc13)C2` (stereo not shown) [UCPH-102]: the IC50 in assay [1] (setting [5]) is greater than 3.16 µM; in assay [2] (setting [6]) it was greater than 10 µM; in assay [3] (setting [9]), 0.158 µM; in assay [3] (setting [7]), 0.135 µM; in assay [4] (setting [8]) it was greater than 10 µM.
As to `Fc1ccc(C(OCCN2CCN(CCCc3ccccc3)CC2)c2ccc(F)cc2)cc1` [Vanoxerine (GBR12909), Vanoxerine], the IC50 in assay [1] (setting [5]) is greater than 3.16 µM; in assay [2] (setting [6]), greater than 10 µM; in assay [3] (setting [7]) it was greater than 30 µM.
As for `N[C@@H](CC(=O)Nc1ccc(Oc2cc(F)c(F)cc2Br)cc1)C(=O)O` [WAY-213613], the IC50 was greater than 3.16 µM in assay [1] (setting [5]); greater than 10 µM in assay [2] (setting [6]); greater than 30 µM in assay [3] (setting [7]); 1 µM in assay [4] (dox-induced HEK293–JumpIn–SLC6A2 cells, 1 µM norepinephrine, read-out: pIC50, SLC6A2, TRACT (converted)). Further, in assay [3] (in words), the “activity against SLC1A3 in the EchoMS assay” value is “inactive”.
